According to the supplement of paper PMC10307832:

Experiments:
Assay in all cases: relative viability (nuclei count vs DMSO), 5 days (fraction); higher = more cells survive
NCI-H2023 = test system: NCI-H2023
Procedure, shortened: (§1)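 Values are medians from duplicate plates. Each reflects relative viability, defined as the nuclei count of treated wells over that of vehicle wells. Lung cancer cell lines in 1536-well plates were pin-tool dosed one day after seeding with one drug alone or with a fixed anchor-drug dose plus five library-drug doses (not always all listed) in √10 steps, then fixed, stained and imaged at 4× after 5 days.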

NCI-H1734 = test system: NCI-H1734
Procedure, shortened: as §1

UMC-11 = test system: UMC-11
Procedure, shortened: as §1

H3255 = test system: H3255
Procedure, shortened: as §1

NCI-H1563 = test system: NCI-H1563
Procedure, shortened: as §1

SW 900 = test system: SW 900
Procedure, shortened: as §1

NCI-H2347 = test system: NCI-H2347
Procedure, shortened: as §1

NCI-H520 = test system: NCI-H520
Procedure, shortened: as §1

NCI-H2405 = test system: NCI-H2405
Procedure, shortened: as §1

PC-14 = test system: PC-14
Procedure, shortened: as §1

201T = test system: 201T
Procedure, shortened: as §1

NCI-H1793 = test system: NCI-H1793
Procedure, shortened: as §1

NCI-H2170 = test system: NCI-H2170
Procedure, shortened: as §1

NCI-H441 = test system: NCI-H441
Procedure, shortened: as §1

NCI-H1650 = test system: NCI-H1650
Procedure, shortened: as §1

NCI-H322M = test system: NCI-H322M
Procedure, shortened: as §1

HCC-15 = test system: HCC-15
Procedure, shortened: as §1

EPLC-272H = test system: EPLC-272H
Procedure, shortened: as §1

NCI-H647 = test system: NCI-H647
Procedure, shortened: as §1

COR-L23 = test system: COR-L23
Procedure, shortened: as §1

LOU-NH91 = test system: LOU-NH91
Procedure, shortened: as §1

NCI-H3122 = test system: NCI-H3122
Procedure, shortened: as §1

For `COc1nc(C)cnc1NS(=O)(=O)c1cccnc1-c1ccc(-c2nnco2)cc1` [Zibotentan] + COc1cc2c(Oc3ccc(NC(=O)C4(C(=O)Nc5ccc(F)cc5)CC4)cc3F)ccnc2cc1OCCCN1CCOCC1 [Foretinib] (partner 0.25 µM), the relative viability (NCI-H2023; first compound 0.08 µM) was 0.942, the relative viability (NCI-H2023; first compound 0.253 µM) was 0.668 and the relative viability (NCI-H2023; first compound 0.8 µM) was 0.932. It also gave a relative viability (NCI-H2023; first compound 2.53 µM) of 0.978, a relative viability (NCI-H1734; first compound 0.08 µM) of 0.875 and a relative viability (NCI-H1734; first compound 0.253 µM) of 0.773. It also gave a relative viability (NCI-H1734; first compound 0.8 µM) of 0.883, a relative viability (NCI-H1734; first compound 2.53 µM) of 0.812 and a relative viability (UMC-11; first compound 0.08 µM) of 1.05. For the same compound, the relative viability (UMC-11; first compound 0.253 µM) was 0.92, the relative viability (UMC-11; first compound 0.8 µM) was 0.991 and the relative viability (UMC-11; first compound 2.53 µM) was 1.04. It also gave a relative viability (H3255; first compound 0.08 µM) of 0.966, a relative viability (H3255; first compound 0.253 µM) of 0.802 and a relative viability (H3255; first compound 0.8 µM) of 0.945. For the same compound, the relative viability (H3255; first compound 2.53 µM) was 0.987, the relative viability (NCI-H1563; first compound 0.08 µM) was 0.985 and the relative viability (NCI-H1563; first compound 0.8 µM) was 1.02. The relative viability (NCI-H1563; first compound 2.53 µM) was 0.979, the relative viability (SW 900; first compound 0.08 µM) was 0.997 and the relative viability (SW 900; first compound 0.253 µM) was 0.811. For the same compound, the relative viability (SW 900; first compound 0.8 µM) was 0.887, the relative viability (SW 900; first compound 2.53 µM) was 0.857 and the relative viability (NCI-H2347; first compound 0.08 µM) was 0.995. It also gave a relative viability (NCI-H2347; first compound 0.253 µM) of 0.896, a relative viability (NCI-H2347; first compound 0.8 µM) of 0.947 and a relative viability (NCI-H2347; first compound 2.53 µM) of 0.655. The relative viability (NCI-H520; first compound 0.08 µM) was 0.811, the relative viability (NCI-H520; first compound 0.253 µM) was 0.738 and the relative viability (NCI-H520; first compound 0.8 µM) was 0.586. The relative viability (NCI-H520; first compound 2.53 µM) was 0.742, the relative viability (NCI-H2405; first compound 0.08 µM) was 1.1 and the relative viability (NCI-H2405; first compound 0.253 µM) was 1.02. For the same compound, the relative viability (NCI-H2405; first compound 0.8 µM) was 1.04, the relative viability (NCI-H2405; first compound 2.53 µM) was 1.05 and the relative viability (PC-14; first compound 0.08 µM) was 1.03. The relative viability (PC-14; first compound 0.253 µM) was 0.897, the relative viability (PC-14; first compound 0.8 µM) was 0.924 and the relative viability (PC-14; first compound 2.53 µM) was 1. For the same compound, the relative viability (201T; first compound 0.08 µM) was 1.16, the relative viability (201T; first compound 0.253 µM) was 0.956 and the relative viability (201T; first compound 0.8 µM) was 1.04. The relative viability (201T; first compound 2.53 µM) was 1.15, the relative viability (NCI-H1793; first compound 0.08 µM) was 0.993 and the relative viability (NCI-H1793; first compound 0.253 µM) was 0.721. It also gave a relative viability (NCI-H1793; first compound 0.8 µM) of 0.546, a relative viability (NCI-H1793; first compound 2.53 µM) of 0.808 and a relative viability (NCI-H2170; first compound 0.08 µM) of 1.05. It also gave a relative viability (NCI-H2170; first compound 0.253 µM) of 1.07, a relative viability (NCI-H2170; first compound 0.8 µM) of 1.03 and a relative viability (NCI-H2170; first compound 2.53 µM) of 0.969. For the same compound, the relative viability (NCI-H441; first compound 0.08 µM) was 1.11, the relative viability (NCI-H441; first compound 0.253 µM) was 0.745 and the relative viability (NCI-H441; first compound 0.8 µM) was 1.03. The relative viability (NCI-H441; first compound 2.53 µM) was 1.04, the relative viability (NCI-H1650; first compound 0.08 µM) was 1.04 and the relative viability (NCI-H1650; first compound 0.8 µM) was 1.29. It also gave a relative viability (NCI-H1650; first compound 2.53 µM) of 1.28, a relative viability (NCI-H322M; first compound 0.08 µM) of 1.03 and a relative viability (NCI-H322M; first compound 0.253 µM) of 0.782. The relative viability (NCI-H322M; first compound 0.8 µM) was 0.98, the relative viability (NCI-H322M; first compound 2.53 µM) was 1.02 and the relative viability (HCC-15; first compound 0.08 µM) was 1.05. The relative viability (HCC-15; first compound 0.8 µM) was 1.03, the relative viability (HCC-15; first compound 2.53 µM) was 1.05 and the relative viability (EPLC-272H; first compound 0.08 µM) was 0.696. It also gave a relative viability (EPLC-272H; first compound 0.253 µM) of 0.641, a relative viability (EPLC-272H; first compound 0.8 µM) of 0.901 and a relative viability (EPLC-272H; first compound 2.53 µM) of 0.787. It also gave a relative viability (NCI-H647; first compound 0.08 µM) of 1.13, a relative viability (NCI-H647; first compound 0.253 µM) of 0.996 and a relative viability (NCI-H647; first compound 0.8 µM) of 1.06. The relative viability (NCI-H647; first compound 2.53 µM) was 1.29, the relative viability (COR-L23; first compound 0.08 µM) was 1.21 and the relative viability (COR-L23; first compound 0.253 µM) was 0.926. The relative viability (COR-L23; first compound 0.8 µM) was 0.989, the relative viability (COR-L23; first compound 2.53 µM) was 0.894 and the relative viability (LOU-NH91; first compound 0.08 µM) was 0.903. The relative viability (LOU-NH91; first compound 0.253 µM) was 0.841, the relative viability (LOU-NH91; first compound 0.8 µM) was 0.969 and the relative viability (LOU-NH91; first compound 2.53 µM) was 0.888. For the same compound, the relative viability (NCI-H3122; first compound 0.08 µM) was 1.02, the relative viability (NCI-H3122; first compound 0.253 µM) was 0.975 and the relative viability (NCI-H3122; first compound 0.8 µM) was 0.983. It also gave a relative viability (NCI-H3122; first compound 2.53 µM) of 1.02.
